From patent US20090311264A1, “Use of Disorazoles and Their Derivatives for the Treatment of Benign and Malignant Oncoses” (AEterna Zentaris GmbH, priority 2003, published 2009)
Converted amounts (≈) assume the structure as drawn. “Also recorded” adds a separate entry of the source. Like-named read-outs stand apart in the source and are kept apart here. One block for each compound: values may come before it.

Columns and labels:
[1] = tested on: ovarian adenocarcinoma cell line SKOV-3; assay: XTT proliferation assay, SKOV-3; type: cell-based, human; settings: for EC50: Homo sapiens, SK-OV-3, read-out: XTT proliferation assay, EC50, SKOV3
Text: (§1) The compounds according to the invention were investigated for their antiproliferative activity in a proliferation test on established tumor cell lines (D. A. Scuderio et al. Cancer Res. 1988, 48, 4827-4833). The test used determines the cellular dehydrogenase activity and makes possible a determination of the cell vitality and indirectly of the cell count. The cell lines used are the human cervical carcinoma cell line KB/HeLa (ATCC CCL17), the ovarian adenocarcinoma cell line SKOV-3 (ATCC HTB77), the human glioblastoma cell line SF-268 (NCI 503138), the lung carcinoma cell line NCI-H460 (NCI 503473) and the human colon adenocarcinoma cell line RKOP 27.

[2] = tested on: human cervical carcinoma cell line KB/HeLa; assay: XTT proliferation assay, KB/HeLa; type: cell-based; settings: for EC50: Homo sapiens, HeLa
Text: as §1

[3] = tested on: lung carcinoma cell line NCI-H460; assay: XTT proliferation assay, NCI-H460; type: cell-based, human; settings: for EC50: Homo sapiens, NCI-H460, read-out: XTT proliferation assay, EC50, NCl-H460
Text: as §1

bovine β-tubulin = assay: Inhibition of the polymerization of tubulin; type: biochemical; settings: n = 2
Procedure: The substances were tested in an in-vitro test for inhibition of the polymerization of bovine β-tubulin (D. M. Bollag et al. Cancer Res. 1995, 55, 2325-2333). In this test, tubulin purified by cycles of polymerization and depolymerization is employed, and is polymerized by addition of GTP and warming. The EC50 values of the inhibition of polymerization of β-tubulin with and without 30% associated proteins (MAPs) are indicated in table 3.

[4] = tested on: human glioblastoma cell line SF-268; assay: XTT proliferation assay, SF-268; type: cell-based; settings: for EC50: Homo sapiens
Text: as §1

[5] = tested on: human colon adenocarcinoma cell line RKOP 27; assay: XTT proliferation assay, RKOP 27; type: cell-based
Text: as §1

[6] = tested on: Salmonella typhimurium TA100; type: cell-based; settings: for AMES TA100 with S9: with rat liver enzyme S9
Procedure: (§2) For the estimation of possible side effects, disorazole E1 was investigated for mutagenicity in a fluctuation assay against the mutant strains TA98 and TA100 of the bacterium Salmonella typhimurium at three concentrations (2.5; 5 and 10 μM). The mutagenicity investigations were further carried out in the presence of the rat liver enzyme S9.

[7] = tested on: Salmonella typhimurium TA98; type: cell-based; settings: for AMES TA98 with S9: with rat liver enzyme S9
Procedure: as §2

[8] = tested on: human hepatocellular carcinoma cells (HepG2); assay: Protein synthesis (incorporation of 14C-methionine); type: cell-based; settings: 1 μM, 14C-methionine incorporation, n = 2
Text: (§3) For the estimation of the possible side-effect potential, the influence of disorazole E1 on nonproliferating cells and on the protein biosynthesis was investigated (table 6).

[9] = tested on: doxorubicin-resistant P388; assay: XTT proliferation test, P388ADR (resistant); type: cell-based, murine; settings: for EC50: Mus musculus, P388
Text: (§4) For further characterization, the substances according to the invention were investigated against multi-drug-resistant cell lines (MDR) in comparison to the nonresistant wild-type cell lines. The cell lines investigated are the acute myeloid leukemia cell line LT1 and the resistant line LT12/mdr. Moreover, the murine P388 cell line (methylcholanthrene-induced lymphoid neoplasm) and the doxorubicin-resistant P388 were used as test systems.

NCI-H460 tumor xenograft = assay: In vivo therapy experiment, NCI-H460 tumor xenograft; set-up: species or system nude mice; settings: for cases of death: n = 8 animals/group
Procedure: The in-vivo activity of the compounds according to the invention was tested on human and murine xenograft models.

[10] = tested on: primary human hepatocytes; assay: Survival of nonproliferating cells (alamarBlue); type: cell-based; settings: 1 μM, n = 3
Text: as §3

KB/HeLa cells = assay: Cell cycle analysis (G2/M arrest); type: cell-based, human; settings: 24 hours at 37° C., read-out: EC50 (50% cells in G2/M)
[11] = tested on: acute myeloid leukemia cell line LT12; assay: XTT proliferation test, LT12 (nonresistant); type: cell-based; settings: for EC50: Rattus norvegicus
Text: as §4

resistant line LT12/mdr = assay: XTT proliferation test, LT12MDR (resistant); type: cell-based; settings: for EC50: Rattus norvegicus, LT12
Text: as §4

murine P388 cell line = assay: XTT proliferation test, P388 (nonresistant); type: cell-based; settings: for EC50: Mus musculus
Text: as §4

SMILES: C/C=C/[C@H](O)C(C)(C)[C@@H]1C\C=C/C=C\C=C\[C@H](OC)Cc2nc(co2)C(=O)O[C@H](C(C)(C)[C@@H](O)/C=C/C)C/C=C\[C@H]2O[C@H]2/C=C/C=C\c2nc(co2)C(=O)O1 [Disorazole A1]
XTT proliferation assay, EC50, SKOV3 [1]: 0.2 ng/mL
XTT proliferation assay, EC50, KB/Hela [2]: 0.15 ng/mL
XTT proliferation assay, EC50, NCl-H460 [3]: 0.15 ng/mL
Inhibition of the polymerization of β-tubulin, EC50 with 30% MAPs (bovine β-tubulin): 4800 ng/mL
XTT proliferation assay, EC50, SF-268 [4]: 0.27 ng/mL
XTT proliferation assay, EC50, RKOP 27 [5]: 0.25 ng/mL

SMILES: C/C=C/C(O)C(C)(C)C1C/C=C\C2OC2C=CC(OC)Cc2nc(co2)C(=O)OC(C(C)(C)C(O)/C=C/C)C/C=C\C2OC2/C=C\C=Cc2nc(co2)C(=O)O1 (centres unmarked) [Disorazole E1]
XTT proliferation assay, EC50, SKOV3 [1]: 0.02 ng/mL
AMES TA100 with S9 ([6]; 2.5 μM): inactive
AMES TA100 without S9 ([6]; 2.5 μM): inactive
AMES TA100 with S9 ([6]; 5 μM): inactive
AMES TA100 without S9 ([6]; 5 μM): inactive
AMES TA100 with S9 ([6]; 10 μM): inactive
AMES TA100 without S9 ([6]; 10 μM): inactive
AMES TA98 with S9 ([7]; 2.5 μM): inactive
AMES TA98 without S9 ([7]; 2.5 μM): inactive
AMES TA98 with S9 ([7]; 5 μM): inactive
AMES TA98 without S9 ([7]; 5 μM): inactive
AMES TA98 with S9 ([7]; 10 μM): inactive
AMES TA98 without S9 ([7]; 10 μM): inactive
AMES test, overall result ([7]; TA98 and TA100, with and without S9, 2.5, 5 and 10 μM): AMES test-inactive
Protein synthesis, Average, % of control [8]: 95.9 % of control
XTT proliferation assay, EC50, P388ADR [9]: 1 ng/mL
cases of death (NCI-H460 tumor xenograft; 0.05 mg/kg, i.v.: day 0, 7, 14): 0.05 mg/kg; i.v.: day 0, 7, 14; no cases of
cases of death (NCI-H460 tumor xenograft; 0.1 mg/kg, i.v.: day 0, 7, 14): 0.1 mg/kg; i.v.: day 0, 7, 14; no cases of
cases of death (NCI-H460 tumor xenograft; 0.25 mg/kg, i.v.: day 0, 7, dead on day 11, 12, 13): 0.25 mg/kg; i.v.: day 0, 7; 8 dead (day
reduction of the tumor growth (NCI-H460 tumor xenograft; i.v., NCI-H460 xenograft-bearing nude mice, at doses without weight decrease or mortality): significant reduction in tumor growth; also recorded: significant reduction of the tumor growth
weight decrease (NCI-H460 tumor xenograft; i.v., at doses reducing tumor growth): no significant weight decrease
Surviving cells, primary human hepatocytes, Average, % of control [10]: 119.6 % of control
EC50 (KB/HeLa cells): 1.6 nM
XTT proliferation assay, EC50, KB/Hela [2]: 0.07 ng/mL
XTT proliferation assay, EC50, NCl-H460 [3]: 0.04 ng/mL
XTT proliferation assay, EC50, LT12 [11]: 0.1 ng/mL
XTT proliferation assay, EC50, LT12MDR (resistant line LT12/mdr): 4 ng/mL
XTT proliferation assay, EC50, P388 (murine P388 cell line): 0.4 ng/mL
Inhibition of the polymerization of β-tubulin, EC50 with 30% MAPs (bovine β-tubulin): 1500 ng/mL
XTT proliferation assay, EC50, SF-268 [4]: 0.17 ng/mL
XTT proliferation assay, EC50, RKOP 27 [5]: 0.06 ng/mL

EC50 [1]: 10 ng/mL (≈ 0.0117 µM)
EC50 [9]: > 3160 ng/mL
EC50 (KB/HeLa cells; Homo sapiens): 46 nM
EC50 [2]: 10 ng/mL (≈ 0.0117 µM)
EC50 [3]: 10 ng/mL (≈ 0.0117 µM)
EC50 [11]: 5 ng/mL (≈ 0.00586 µM)
EC50 (murine P388 cell line): 35 ng/mL (≈ 0.041 µM)
EC50 [4]: 10 ng/mL (≈ 0.0117 µM)
SMILES: CC(=O)O[C@H]1C(=O)[C@@]2(C)[C@H]([C@H](OC(=O)c3ccccc3)[C@]3(O)C[C@H](OC(=O)[C@H](O)[C@@H](NC(=O)c4ccccc4)c4ccccc4)C(C)=C1C3(C)C)[C@]1(OC(C)=O)CO[C@@H]1C[C@@H]2O [Paclitaxel]
EC50 (resistant line LT12/mdr): 340 ng/mL (≈ 0.398 µM)

EC50 [1]: 2 ng/mL (≈ 0.00265 µM)
EC50 [9]: 940 ng/mL (≈ 1.25 µM)
EC50 (KB/HeLa cells; Homo sapiens): 3 nM
EC50 [2]: 2 ng/mL (≈ 0.00265 µM)
EC50 [3]: 6 ng/mL (≈ 0.00796 µM)
EC50 [11]: 0.9 ng/mL (≈ 0.00119 µM)
EC50 (murine P388 cell line): 9 ng/mL (≈ 0.0119 µM)
Inhibition of the polymerization of β-tubulin, EC50 with 30% MAPs (bovine β-tubulin): 400 ng/mL
EC50 [4]: 5 ng/mL (≈ 0.00663 µM)
SMILES: CC[C@]1(O)C[C@@H]2CN(CCc3c([nH]c4ccccc34)[C@@](C(=O)OC)(c3cc4c(cc3OC)N(C)[C@H]3[C@@](O)(C(N)=O)[C@H](O)[C@]5(CC)C=CCN6CC[C@]43[C@@H]65)C2)C1 [Vindesine]
EC50 (resistant line LT12/mdr): 222 ng/mL (≈ 0.294 µM)
